Experimental data published in paper PMC12948427 (The Journal of Clinical Investigation, 2025).
Where “and” joins values, the source holds several entries; their conditions need not be identical. Equal entries are not always repeated. Where two headings read alike, the source gives them in different places.

Experiments:
[1] = test system: SARS-CoV-2 wild-type; test: microbe, parasite or virus in culture; format: cell-based; conditions: Severe acute respiratory syndrome coronavirus 2, 24 h, read-out: EC50 (IFA)
[2] = test system: SARS-CoV-2 Omicron BA.5; test: microbe, parasite or virus in culture; format: cell-based; conditions: Severe acute respiratory syndrome coronavirus 2, 24 h, read-out: EC50 (IFA)
[3] = test system: HCoV-NL63; test: In vitro antiviral activity assay (IFA), HCoV-NL63; format: cell-based; conditions: for Inhibition rate (IFA): Fig 5C, MOI 0.1, 48 h
[4] = test system: MHV; test: microbe, parasite or virus in culture; format: cell-based, mouse hepatitis virus (MHV); conditions: Murine coronavirus, 24 h, read-out: EC50 (IFA)
[5] = test system: HCoV-OC43; test: In vitro antiviral activity assay (IFA), HCoV-OC43; format: cell-based; conditions: for Inhibition rate (IFA): Fig 5E, MOI 0.1, 48 h
[6] = test system: HCoV-229E; test: In vitro antiviral activity assay (IFA), HCoV-229E; format: cell-based; conditions: for Inhibition rate (IFA): Fig 5F, MOI 0.1, 48 h
[7] = test system: WIV1; test: microbe, parasite or virus in culture; format: cell-based, bat coronavirus WIV1; conditions: Bat coronavirus, 48 h, read-out: EC50 (IFA)
[8] = test system: HCoV-OC43; test: Infection of ALI-cultured primary HBEs, HCoV-OC43; format: cell-based
Experimental: (§1) Primary HBEs at passage 3 or earlier were seeded at a density of 40,000 cells per well in Transwell inserts (Costar 6.5 mm Transwell, 0.4 μm Pore Polyester Membrane Inserts, catalog 3470) for expansion culture. The cells were cultured in expansion medium (PneumaCult-Ex Plus Medium, catalog 05040) until tight junctions were formed. Once tight junctions were established, the expansion medium in the upper chamber was discarded, and the medium in the lower chamber was replaced with ALI differentiation medium (PneumaCult-ALI Medium, catalog 05001). Cells were maintained under ALI conditions, with the medium being changed every 2 days. The differentiation process was carried out for 21 days, during which cell morphology and differentiation status were monitored. The fully differentiated cells were infected with HCoV-OC43, HCoV-229E, HCoV-NL63, or SARS-CoV-2 (MOI = 1), and fresh medium was changed 1 hour postinfection. Specific peptide was added into the medium every 24 hours. At 96 hours postinfection, cells in Transwell inserts were washed with 140 μL PBS per insert, and the wash fluid was collected to extract virus RNA followed by RT-qPCR. […] The fluorescence was measured using ImageJ (NIH).

[9] = test system: HCoV-NL63; test: Infection of ALI-cultured primary HBEs, HCoV-NL63; format: cell-based
Experimental: as §1

[10] = test system: WIV1; format: cell-based, bat coronavirus WIV1
[11] = test system: SARS-CoV-2 Omicron BA.5; format: in vivo, K18-hACE2 C57BL/6 mice; conditions: mouse, in vivo
[12] = test system: MHV; set-up: species or system C57BL/6 mice; conditions: mouse, in vivo
[13] = test system: HCoV-229E; set-up: species or system K18-hACE2 C57BL/6 mice; conditions: mouse, in vivo
[14] = test system: SARS-CoV-2 VLP; format: cell-based
[15] = test system: MERS VLP; format: cell-based, MERS-CoV
[16] = test system: MHV; format: cell-based, mouse hepatitis virus (MHV)
[17] = test system: Calu-3 cells
[18] = molecular target: hHgs 1-390 protein (Homo sapiens, UniProt O14964); test: biochemical
[19] = Tolerability of RTB in mice; conditions: high concentrations (500 mg/kg)
[20] = test system: MHV; test: microbe, parasite or virus in culture; conditions: Murine coronavirus, 24 h, read-out: EC50, rescue of coronavirus-induced cytopathic effects

Chain of hHgs 1-390 protein (O14964 1-390): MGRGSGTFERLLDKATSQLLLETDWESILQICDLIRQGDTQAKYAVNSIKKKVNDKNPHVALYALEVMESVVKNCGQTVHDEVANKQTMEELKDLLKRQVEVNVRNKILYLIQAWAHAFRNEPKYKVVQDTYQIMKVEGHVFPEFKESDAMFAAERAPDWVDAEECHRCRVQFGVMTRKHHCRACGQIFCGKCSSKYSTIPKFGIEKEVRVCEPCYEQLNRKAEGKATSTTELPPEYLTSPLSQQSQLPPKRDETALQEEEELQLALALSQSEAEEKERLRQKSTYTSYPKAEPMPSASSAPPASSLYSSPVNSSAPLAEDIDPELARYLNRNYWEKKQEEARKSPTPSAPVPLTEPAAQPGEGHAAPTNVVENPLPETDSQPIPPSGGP

SMILES: CCCC(=O)OC[C@@H](OC(=O)CCC)[C@@H](OC(=O)CCC)[C@H](Cn1c2nc(=O)[nH]c(=O)c-2nc2cc(C)c(C)cc21)OC(=O)CCC [RTB, riboflavin tetrabutyrate]
- EC50 [1]: 14.8 µM
- EC50 [2]: 4.09 µM
- Inhibition rate (IFA) ([3]; conc 30 (unit not given)): -14.9284% and -12.1937% and -12.3632%
- Inhibition rate (IFA) ([3]; conc 100 (unit not given)): -16.9149% and -18.5591% and -23.768%
- Inhibition rate (IFA) ([3]; conc 1000 (unit not given)): -12.8364% and -7.587% and -17.221%
- Inhibition rate (IFA) ([3]; conc 10000 (unit not given)): 59.7114% and 61.0537% and 58.023%
- Inhibition rate (IFA) ([3]; conc 25000 (unit not given)): 99.7675% and 100.17% and 100.28%
- EC50 ([3]; Human coronavirus NL63, 48 h, read-out: EC50 (IFA)): 8.46 µM
- EC50 [4]: 11.2 µM
- EC50 ([5]; Betacoronavirus 1, OC43, 48 h, read-out: EC50 (IFA)): 13.9 µM
- Inhibition rate (IFA) ([5]; conc 10 (unit not given)): 33.23% and 29.76% and 39.01%
- Inhibition rate (IFA) ([5]; conc 30 (unit not given)): 30.69% and 22.69% and 29.93%
- Inhibition rate (IFA) ([5]; conc 100 (unit not given)): 21.56% and 24.49% and 30.14%
- Inhibition rate (IFA) ([5]; conc 300 (unit not given)): 23.53% and 24.32% and 29.19%
- Inhibition rate (IFA) ([5]; conc 1000 (unit not given)): 26.08% and 27.96% and 36.83%
- Inhibition rate (IFA) ([5]; conc 3000 (unit not given)): 25.37% and 28.07% and 29.03%
- Inhibition rate (IFA) ([5]; conc 10000 (unit not given)): 32.25% and 33.08% and 32.48%
- Inhibition rate (IFA) ([5]; conc 25000 (unit not given)): 79.43% and 69.76% and 58.83%
- Inhibition rate (IFA) ([6]; conc 10 (unit not given)): 1.96% and 3.23% and 5.67%
- Inhibition rate (IFA) ([6]; conc 30 (unit not given)): 3.76% and 4.49% and 3.62%
- Inhibition rate (IFA) ([6]; conc 100 (unit not given)): 5.42% and 6.32% and 1.81%
- Inhibition rate (IFA) ([6]; conc 200 (unit not given)): 10.91% and 9.21% and 8.05%
- Inhibition rate (IFA) ([6]; conc 1000 (unit not given)): 20.9% and 20.96% and 21.52%
- Inhibition rate (IFA) ([6]; conc 5000 (unit not given)): 53.61% and 55.59% and 56.09%
- Inhibition rate (IFA) ([6]; conc 10000 (unit not given)): 87.09% and 86.7% and 87.17%
- Inhibition rate (IFA) ([6]; conc 20000 (unit not given)): 98.7% and 98.72% and 98.89%
- EC50 ([6]; Human coronavirus 229E, 48 h, read-out: EC50 (IFA)): 6.11 µM
- EC50 [7]: 3.53 µM
- extracellular viral gRNA levels (RT-qPCR) ([8]; Fig 5I, HCoV-OC43 MOI = 1, ALI-cultured HBEs, 96 h, RTB dose 5 (unit not given)): 24 and 18 and 15
- inhibition of infection in ALI cultures of HBEs ([8]; HCoV-OC43): significant, dose-dependent inhibition
- extracellular viral gRNA levels (RT-qPCR) ([9]; Fig 5J, HCoV-NL63 MOI = 1, ALI-cultured HBEs, 96 h, RTB dose 5 (unit not given)): 46 and 42 and 25
- inhibition of infection in ALI cultures of HBEs ([9]; HCoV-NL63): significant, dose-dependent inhibition
- inhibition of infection in ALI cultures of HBEs [10]: significant, dose-dependent inhibition
- Survival curves: per-mouse event code [11]: 0
- body weight loss [11]: markedly reduced body weight loss
- lung inflammation [11]: alleviated lung inflammation
- pulmonary viral titers [11]: substantially lowered pulmonary viral titers
- survival [11]: significantly improved survival
- pulmonary viral titers [12]: lowered pulmonary viral titers
- viral gRNA [12]: significantly reduced viral gRNA
- virus-induced lung injury [12]: markedly attenuated virus-induced lung injury
- pulmonary viral titers [13]: lowered pulmonary viral titers
- viral gRNA [13]: significantly reduced viral gRNA
- virus-induced lung injury [13]: markedly attenuated virus-induced lung injury
- VLPs' release [14]: concentration-dependent inhibition
- VLPs' release [15]: concentration-dependent inhibition
- Extracellular MHV gRNA (Figure S11A) ([16]; Ctr 17Cl-1 cells, 24 hpi): 2.752 and 2.754 and 2.756
- Extracellular MHV gRNA (Figure S11A) ([16]; Ctr 17Cl-1 cells, 48 hpi): 3.4199 and 3.426 and 3.424
- Extracellular MHV gRNA (Figure S11A) ([16]; Ctr 17Cl-1 cells, 72 hpi): 4.001 and 4.062 and 3.972
- Extracellular MHV gRNA (Figure S11A) ([16]; Hgs-KO1 17Cl-1 cells, 24 hpi): 1.499 and 1.531 and 1.548
- Extracellular MHV gRNA (Figure S11A) ([16]; Hgs-KO1 17Cl-1 cells, 48 hpi): 1.985 and 1.987 and 1.914
- Extracellular MHV gRNA (Figure S11A) ([16]; Hgs-KO1 17Cl-1 cells, 72 hpi): 3.343 and 3.307 and 3.373
- Extracellular MHV gRNA (Figure S11A) ([16]; Hgs-KO2 17Cl-1 cells, 24 hpi): 1.087 and 1.162 and 1.202
- Extracellular MHV gRNA (Figure S11A) ([16]; Hgs-KO2 17Cl-1 cells, 48 hpi): 1.5876 and 1.652 and 1.594
- Extracellular MHV gRNA (Figure S11A) ([16]; Hgs-KO2 17Cl-1 cells, 72 hpi): 2.484 and 2.493 and 2.452
- antiviral activity in Hgs-KO cells ([16]; MHV, Hgs-KO 17Cl-1, RTB 25 μM or RDV 5 μM, compared with DMSO-treated Hgs-KO cells): failed to inhibit viral infection
- cell viability, Figure S9N ([17]; concentration 100): 105.852 and 107.383 and 107.23
- cell viability, Figure S9N ([17]; concentration 200): 101.565 and 101.412 and 100.391
- cell viability, Figure S9N ([17]; concentration 500): 101.157 and 97.3801 and 98.3498
- cell viability, Figure S9N ([17]; concentration 1000): 97.9415 and 98.4518 and 97.0228
- cell viability, Figure S9N ([17]; concentration 2000): 101.616 and 101.361 and 95.2365
- cell viability, Figure S9N ([17]; concentration 5000): 102.331 and 100.647 and 99.932
- cell viability, Figure S9N ([17]; concentration 10000): 101.31 and 101.055 and 99.5747
- cell viability, Figure S9N ([17]; concentration 20000): 107.281 and 106.312 and 107.792
- IC50 [18]: 580 nM
- cytotoxicity or adverse effects in mice [19]: no cytotoxicity or adverse effects
- EC50 [20]: 3.48 µM
